In patent US20220395007A1, “TASTE MODULATING COMPOUNDS AND METHODS OF IMPROVING THE QUALITY OF FOODS AND BEVERAGES” (Ohio State Innovation Foundation, priority 2019, published 2022):

What was measured:
[1] = system: perceived bitterness intensity of a coffee rated as having a high bitter intensity; assay: Sensory panel evaluation of perceived bitterness intensity of coffee brew; format: in vivo, human; details: compound added individually to high-bitter coffee (4-CQA about 177 mg/L, 5-CQA about 181 mg/L, 2-GA about 45 mg/L); eight trained panelists, nose clips, room temperature, duplicate; p<0.05
Experimental: 4-CQA (4-caffeoylquinic acid) (about 177 mg/L), 5-CQA (5-caffeoylquinic acid) (about 181 mg/L), and 2-GA (2-O-β-D-glucopyranosyl-atractyligenin) (about 45 mg/L) were added individually or as a group to a coffee rated as having a high bitter intensity. Five mL of each sample at room temperature was presented to experienced sensory panelists in 1 oz black cups labeled with 3-digit codes in random order. Eight trained panelists, recruited by Flavor Research and Education Center (FREC) at The Ohio State University, used nose clips during the evaluation in order to prevent interactions with olfactory responses. Between samples, panelists waited a minimum of 90 seconds and were asked to cleanse their palate using crackers and water. All evaluations were conducted in duplicate using Compusense Cloud software (Compusense Inc., Guelph, ON, Canada). […] FIGS. 1 and 2.

[2] = system: taste attributes in isolation; assay: Taste attributes of the compounds in isolation, by consensus of experienced sensory panelists; format: in vivo, human; details: same concentrations as in coffee, 5 experienced panelists by consensus
Experimental: The taste attributes 4-CQA, 5-CQA, and 2-GA in isolation were further evaluated by 5 experienced sensory panelists by consensus. Each compound was dissolved in 5 mL nanopure water and 5 mL buffer (0.05 M sodium phosphate butter adjusted to pH 5.77 with 0.1 M citric acid) at the same concentrations described above. […] This led to the confirmation that 4-CQA, 5-CQA, and 2-O-β-D-glucopyranosyl-atractyligenin were bitter modulators that suppressed perception.

[3] = dissolved in 5 mL buffer (0.05 M sodium phosphate adjusted to pH 5.77 with 0.1 M citric acid)
[4] = dissolved in 5 mL nanopure water

| Compound | perceived bitterness intensity of the coffee brew [1] | taste attribute in isolation [2, 3] | taste attribute in isolation [2, 4] |
| --- | --- | --- | --- |
| C=C1[C@@H]2CCC3[C@@](CC[C@@H]4[C@H](C(=O)O)C[C@@H](O[C@@H]5O[C@H](CO)[C@@H](O)[C@H](O)[C@H]5O)C[C@@]34C)(C2)[C@H]1O (stereo partly drawn) [2-GA, 2-O-β-D-glucopyranosyl-atractyligenin] | significantly reduce | no obvious taste character | no obvious taste character |
| O=C(/C=C/c1ccc(O)c(O)c1)O[C@H]1C(O)C[C@](O)(C(=O)O)C[C@H]1O (stereo partly drawn) [4-CQA, 4-O-caffeoylquinic acid] | significantly reduce | very weak sour taste | very weak sour taste |
| O=C(/C=C/c1ccc(O)c(O)c1)O[C@@H]1C[C@@](O)(C(=O)O)C[C@@H](O)[C@@H]1O [5-CQA, 5-O-caffeoylquinic acid] | significantly reduce | very weak sour taste | very weak sour taste |
